# Measured values reported in ChEMBL document CHEMBL1201862, “PubChem BioAssay data set” (2004).
#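 Method: 48-hour compound exposure of cells in 96-well plates, five concentrations, linear interpolation of endpoints. Abbreviation: GI50, concentration required for 50% inhibition of growth.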 Active and inactive are the calls of the source. Cut-off read from the data, not from the text of the source: active = GI50 up to about 1.1 µM and inactive = higher.
# Legend:
# Test in all cases: DTP human tumour cell line panel, 48 h
# SK-MEL-5 = system: SK-MEL-5
# MOLT-4 = system: MOLT-4
# CCRF-CEM = system: CCRF-CEM
# K562 = system: K562
# NCI-H522 = system: NCI-H522
# HL-60 = system: HL-60
# HCT-15 = system: HCT-15
# OVCAR-3 = system: OVCAR-3
# ACHN = system: ACHN
# HT-29 = system: HT-29
# OVCAR-4 = system: OVCAR-4
# SNB-19 = system: SNB-19
# U-251 = system: U-251
# A549 = system: A549
# Malme-3M = system: Malme-3M
# SN12C = system: SN12C
# NCI-H23 = system: NCI-H23
# SK-MEL-28 = system: SK-MEL-28
# OVCAR-5 = system: OVCAR-5
# SR = system: SR
Structure (SMILES),GI50 (SK-MEL-5),GI50 (MOLT-4),GI50 (CCRF-CEM),GI50 (K562),GI50 (NCI-H522),GI50 (HL-60),GI50 (HCT-15) [µM],GI50 (OVCAR-3),GI50 (ACHN),GI50 (HT-29),GI50 (OVCAR-4),GI50 (SNB-19),GI50 (U-251),GI50 (A549),GI50 (Malme-3M),GI50 (SN12C),GI50 (NCI-H23),GI50 (SK-MEL-28),GI50 (OVCAR-5),GI50 (SR)
CC1(C)OP23(NC(=O)OC2(C(F)(F)F)c2ccccc2O3)OC1(C)C (centres undefined),> 100 µM (inactive),> 100 µM (inactive),> 100 µM (inactive),> 100 µM (inactive),> 100 µM (inactive),> 100 µM (inactive),> 100,> 100 µM (inactive),> 100 µM (inactive),> 100 µM (inactive),> 100 µM (inactive),> 100 µM (inactive),> 100 µM (inactive),> 100 µM (inactive),> 100 µM (inactive),> 100 µM (inactive),> 100 µM (inactive),> 100 µM (inactive),,
C[Si](C)(C)/C=C/CN1C(=O)CCC1=O,> 100 µM (inactive),> 10 µM (inactive),> 100 µM (inactive),> 100 µM (inactive),> 100 µM (inactive),> 100 µM (inactive),> 100,> 100 µM (inactive),> 100 µM (inactive),> 100 µM (inactive),,> 100 µM (inactive),> 100 µM (inactive),> 100 µM (inactive),> 100 µM (inactive),> 100 µM (inactive),> 100 µM (inactive),> 100 µM (inactive),> 100 µM (inactive),> 100 µM (inactive)
COc1nc(SC)nc2c1cnn2C1OC(C(O)CO)C(OC)C1O (centres undefined),> 100 µM (inactive),14 µM (inactive),58.7 µM (inactive),> 100 µM (inactive),> 100 µM (inactive),52.7 µM (inactive),> 83,99.3 µM (inactive),,52.4 µM (inactive),69.3 µM (inactive),> 100 µM (inactive),> 100 µM (inactive),52.1 µM (inactive),> 100 µM (inactive),> 100 µM (inactive),> 100 µM (inactive),> 100 µM (inactive),> 100 µM (inactive),
COc1cc(C2C(C(=O)O)=C(CO)Oc3cc4c(cc32)OCO4)cc(OC)c1O (centres undefined),> 100 µM (inactive),> 100 µM (inactive),> 100 µM (inactive),> 100 µM (inactive),,> 100 µM (inactive),> 100,> 100 µM (inactive),> 100 µM (inactive),> 100 µM (inactive),> 100 µM (inactive),> 100 µM (inactive),> 100 µM (inactive),> 100 µM (inactive),> 100 µM (inactive),> 100 µM (inactive),,> 100 µM (inactive),,
O=c1[nH]c(=O)n(C2CC(O)C(CO)O2)cc1C(OCC(F)(F)F)OCC(F)(F)F (centres undefined),> 100 µM (inactive),> 100 µM (inactive),70.8 µM (inactive),53.3 µM (inactive),> 100 µM (inactive),> 100 µM (inactive),,> 100 µM (inactive),> 100 µM (inactive),> 100 µM (inactive),> 100 µM (inactive),> 100 µM (inactive),> 100 µM (inactive),> 100 µM (inactive),> 100 µM (inactive),> 100 µM (inactive),> 100 µM (inactive),> 100 µM (inactive),> 100 µM (inactive),
CN(C)C(=S)/N=c1\ssc(=S)n1C,> 100 µM (inactive),> 100 µM (inactive),> 100 µM (inactive),> 100 µM (inactive),> 100 µM (inactive),> 100 µM (inactive),> 100,,> 100 µM (inactive),> 100 µM (inactive),> 100 µM (inactive),> 100 µM (inactive),> 100 µM (inactive),> 100 µM (inactive),> 100 µM (inactive),> 100 µM (inactive),> 100 µM (inactive),> 100 µM (inactive),> 100 µM (inactive),> 100 µM (inactive)
O=C(NN1C(=O)CS(=O)(=O)C1c1ccc(Cl)c(Cl)c1)c1ccncc1 (centres undefined),> 94.2 µM (inactive),> 40.3 µM (inactive),42.1 µM (inactive),> 54.2 µM (inactive),66.1 µM (inactive),> 43 µM (inactive),> 100,> 90.8 µM (inactive),,> 71.3 µM (inactive),> 100 µM (inactive),> 92.3 µM (inactive),> 100 µM (inactive),> 92.3 µM (inactive),> 100 µM (inactive),> 100 µM (inactive),> 100 µM (inactive),> 100 µM (inactive),> 62.2 µM (inactive),
CC(=O)OC(OC(C)=O)n1cc(C=O)c2ccccc21,> 100 µM (inactive),> 100 µM (inactive),> 100 µM (inactive),> 100 µM (inactive),> 100 µM (inactive),> 100 µM (inactive),> 100,> 100 µM (inactive),> 100 µM (inactive),> 100 µM (inactive),> 100 µM (inactive),> 100 µM (inactive),> 100 µM (inactive),> 100 µM (inactive),,> 100 µM (inactive),> 100 µM (inactive),> 100 µM (inactive),> 100 µM (inactive),> 100 µM (inactive)
ClCC1(CCl)COC1,> 100 µM (inactive),> 100 µM (inactive),> 100 µM (inactive),> 100 µM (inactive),> 100 µM (inactive),> 100 µM (inactive),> 100,> 100 µM (inactive),> 100 µM (inactive),> 100 µM (inactive),> 100 µM (inactive),> 100 µM (inactive),> 100 µM (inactive),> 100 µM (inactive),,> 100 µM (inactive),> 100 µM (inactive),> 100 µM (inactive),,> 100 µM (inactive)
C[N+](C)([O-])CCOc1cc2c(c3ccccc13)-c1ccccc1C2=O,14.4 µM (inactive),3.46 µM (inactive),8.2 µM (inactive),15.8 µM (inactive),10.2 µM (inactive),14.3 µM (inactive),28.2,11.7 µM (inactive),,7.46 µM (inactive),3.92 µM (inactive),13.6 µM (inactive),13.3 µM (inactive),23.3 µM (inactive),14 µM (inactive),9.08 µM (inactive),21.5 µM (inactive),18.3 µM (inactive),24 µM (inactive),
Cc1cc(C)n(C(=C(C(Cl)=C(Cl)Cl)[N+](=O)[O-])n2nc(C)cc2C)n1,2.13 µM (inactive),2.37 µM (inactive),2.16 µM (inactive),2.02 µM (inactive),2.73 µM (inactive),1.91 µM (inactive),3.2,3.08 µM (inactive),3.21 µM (inactive),3.5 µM (inactive),3.59 µM (inactive),4.81 µM (inactive),3.44 µM (inactive),3.5 µM (inactive),2.98 µM (inactive),3.98 µM (inactive),3.23 µM (inactive),6.17 µM (inactive),7.93 µM (inactive),
CN(C)CCNC(=O)c1cccc2ccc(-c3ccc(F)cc3)nc12,3.34 µM (inactive),1.94 µM (inactive),2.86 µM (inactive),2.93 µM (inactive),3.91 µM (inactive),2.29 µM (inactive),3.85,6.89 µM (inactive),,3.3 µM (inactive),4.38 µM (inactive),6.87 µM (inactive),6.19 µM (inactive),3.13 µM (inactive),4.9 µM (inactive),4.85 µM (inactive),4.47 µM (inactive),7.06 µM (inactive),7.55 µM (inactive),
COC(=O)c1cn(CC(O)CCl)nn1 (centres undefined),> 100 µM (inactive),> 100 µM (inactive),> 100 µM (inactive),> 100 µM (inactive),> 100 µM (inactive),> 10 µM (inactive),> 100,> 100 µM (inactive),> 100 µM (inactive),> 100 µM (inactive),> 100 µM (inactive),> 100 µM (inactive),> 100 µM (inactive),> 100 µM (inactive),> 100 µM (inactive),> 100 µM (inactive),> 100 µM (inactive),> 100 µM (inactive),> 100 µM (inactive),
CC(=O)OCC1OC(n2c3c(c(-c4ccco4)c(C#N)c2=S)CCC3)C(OC(C)=O)C(OC(C)=O)C1OC(C)=O (centres undefined),31.6 µM (inactive),4.42 µM (inactive),8.09 µM (inactive),21.9 µM (inactive),,82.8 µM (inactive),> 100,> 100 µM (inactive),> 100 µM (inactive),> 100 µM (inactive),56.8 µM (inactive),> 100 µM (inactive),54.6 µM (inactive),> 100 µM (inactive),> 100 µM (inactive),> 100 µM (inactive),> 100 µM (inactive),> 100 µM (inactive),> 100 µM (inactive),31.6 µM (inactive)
O=C(O)C12CCCCC1CCCC2 (centres undefined),> 100 µM (inactive),> 100 µM (inactive),> 100 µM (inactive),> 100 µM (inactive),> 100 µM (inactive),> 100 µM (inactive),> 100,> 100 µM (inactive),> 100 µM (inactive),> 100 µM (inactive),> 100 µM (inactive),> 100 µM (inactive),> 100 µM (inactive),> 100 µM (inactive),,> 100 µM (inactive),> 100 µM (inactive),> 100 µM (inactive),> 100 µM (inactive),
